# Molecular target: T1, Human complement C1s enzyme (Homo sapiens, UniProt P09871)
# T1 sequence (P09871 438-688 limits assumed): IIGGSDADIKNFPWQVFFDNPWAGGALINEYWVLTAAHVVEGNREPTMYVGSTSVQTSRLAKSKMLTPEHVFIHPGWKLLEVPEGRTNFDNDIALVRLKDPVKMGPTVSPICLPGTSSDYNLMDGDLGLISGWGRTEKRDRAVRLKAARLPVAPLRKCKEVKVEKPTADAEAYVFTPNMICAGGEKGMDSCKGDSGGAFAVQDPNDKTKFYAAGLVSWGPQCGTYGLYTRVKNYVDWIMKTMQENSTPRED
# T1 sequence (P09871 16-437 partner limits assumed): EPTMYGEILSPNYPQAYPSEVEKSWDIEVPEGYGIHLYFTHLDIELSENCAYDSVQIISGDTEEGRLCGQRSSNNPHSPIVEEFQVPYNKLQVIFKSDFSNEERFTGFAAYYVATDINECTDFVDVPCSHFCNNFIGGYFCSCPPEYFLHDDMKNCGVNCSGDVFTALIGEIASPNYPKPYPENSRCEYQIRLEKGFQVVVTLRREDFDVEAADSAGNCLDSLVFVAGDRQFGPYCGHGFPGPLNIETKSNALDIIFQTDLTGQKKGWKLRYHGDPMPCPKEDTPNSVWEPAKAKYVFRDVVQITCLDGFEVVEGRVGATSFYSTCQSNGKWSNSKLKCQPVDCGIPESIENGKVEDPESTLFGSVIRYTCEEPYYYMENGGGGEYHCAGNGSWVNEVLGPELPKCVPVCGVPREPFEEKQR
# Assay: Human C1s enzyme assay
# Format: biochemical
# Details: human complement C1s enzyme 1.16 nM, substrate Z-L-Lys-SBzl 100 μM, 5 min preincubation; read-out: IC50 (Stars), C1s Inhibiting Activity
# How it was run: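 IC50 from nonlinear regression of reaction rates versus compound concentration, with rates taken from A405 recorded at 30 s intervals over 30 min after adding 100 μM Z-L-Lys-SBzl plus 100 μM DTNB. Enzyme was human C1s purified from serum, 1.16 nM, given 5 min compound preincubation at room temperature, pH 7.5 Tris/1 M NaCl.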
row,SMILES,IC50 [nM]
1,"Cc1cccc(-c2nc(C)cc(C(=O)NCC(=O)N3CC4(C[C@H]3C(=O)NCc3cc5cnccc5[nH]3)OCCO4)c2C)c1 [Compound 306, (S)-N-((1H-pyrrolo[3,2-c]pyridin-2-yl)methyl)-7-((3,6-dimethyl-2-(m-tolyl)isonicotinoyl)glycyl)-1,4-dioxa-7-azaspiro[4.4]nonane-8-carboxamide]",< 100
2,"Cc1ccc(Oc2cccc(C(=O)NCC(=O)N3CC4(C[C@H]3C(=O)NCc3cc5cnccc5[nH]3)OCCO4)c2)c(F)c1 [Compound 307, (S)-N-((1H-pyrrolo[3,2-c]pyridin-2-yl)methyl)-7-((3-(2-fluoro-4-methylphenoxy)benzoyl)glycyl)-1,4-dioxa-7-azaspiro[4.4]nonane-8-carboxamide]",< 100
3,"Cc1cc(F)ccc1Oc1ccc(C(=O)NCC(=O)N2C[C@H](OC(F)F)C[C@H]2C(=O)NCc2cc3cnccc3[nH]2)cc1 [Compound 308, (2S,4R)-N-((1H-pyrrolo[3,2-c]pyridin-2-yl)methyl)-4-(difluoromethoxy)-1-((4-(4-fluoro-2-methylphenoxy)benzoyl)glycyl)pyrrolidine-2-carboxamide]",< 100
4,"Cc1ccc(Oc2cccc(C(=O)NCC(=O)N3C[C@H](S(C)(=O)=O)C[C@H]3C(=O)NCc3cc4cnccc4[nH]3)c2)c(F)c1 [Compound 309, (2S,4R)-N-((1H-pyrrolo[3,2-c]pyridin-2-yl)methyl)-1-((3-(2-fluoro-4-methylphenoxy)benzoyl)glycyl)-4-(methylsulfonyl) pyrrolidine-2-carboxamide]",< 100
5,"Cc1ccc(Oc2cccc(C(=O)NCC(=O)N3CCC[C@H]3C(=O)NCc3cc4cnccc4[nH]3)c2)c(F)c1 [Compound 310, (S)-N-((1H-pyrrolo[3,2-c]pyridin-2-yl)methyl)-1-((3-(2-fluoro-4-methylphenoxy)benzoyl)glycyl)pyrrolidine-2-carboxamide]",< 100
6,"Cc1ccc(Oc2cccc(C(=O)NCC(=O)N3C[C@H](OC(F)F)C[C@H]3C(=O)N[C@H](C)c3cc4cnccc4[nH]3)c2)c(F)c1 [Compound 312, (2S,4R)-N-((R)-1-(1H-pyrrolo[3,2-c]pyridin-2-yl)ethyl)-4-(difluoromethoxy)-1-((3-(2-fluoro-4-methylphenoxy)benzoyl)glycyl) pyrrolidine-2-carboxamide]",< 100
7,"O=C(NCC(=O)N1C[C@H](OC(F)F)C[C@H]1C(=O)NCc1cc2c(s1)CCNC2)c1ccc2c(c1)Oc1ccccc1S2 [Compound 313, (2S,4R)-4-(difluoromethoxy)-1-((phenoxathiine-3-carbonyl)glycyl)-N-((4,5,6,7-tetrahydrothieno[3,2-c]pyridin-2-yl)methyl)pyrrolidine-2-carboxamide]",< 100
8,"CC1(O)c2ccccc2-c2cc(C(=O)NCC(=O)N3C[C@H](OC(F)F)C[C@H]3C(=O)NCc3cc4cnccc4[nH]3)ccc21 (stereo partly drawn) [Compound 314, (2S,4R)-N-((1H-pyrrolo[3,2-c]pyridin-2-yl)methyl)-4-(difluoromethoxy)-1-((9-hydroxy-9-methyl-9H-fluorene-3-carbonyl)glycyl) pyrrolidine-2-carboxamide]",< 100
9,"Cc1ccc(Oc2cccc(C(=O)NCC(=O)N3[C@H]4C[C@@]4(C)C[C@H]3C(=O)NCc3cc4cnccc4[nH]3)c2)c(F)c1 [Compound 315, (1S,3S,5S)-N-((1H-pyrrolo[3,2-c]pyridin-2-yl)methyl)-2-((3-(2-fluoro-4-methylphenoxy)benzoyl)glycyl)-5-methyl-2-azabicyclo[3.1.0]hexane-3-carboxamide]",< 100
10,"Cc1ccc(Oc2ccc(C(=O)NCC(=O)N3C[C@H](OC(F)F)C[C@H]3C(=O)NCc3cc4cnccc4[nH]3)cc2)c(F)c1 [Compound 316, (2S,4R)-N-((1H-pyrrolo[3,2-c]pyridin-2-yl)methyl)-4-(difluoromethoxy)-1-((4-(2-fluoro-4-methylphenoxy)benzoyl)glycyl) pyrrolidine-2-carboxamide]",< 100

# Second part, the compound after the results:
row,IC50 [nM],SMILES
1,< 100,"O=C(NCC(=O)N1C[C@H](OC(F)F)C[C@H]1C(=O)NCc1cc2cnccc2[nH]1)c1ccc(F)c(Oc2ccsc2)c1 [Compound 317, (2S,4R)-4-(difluoromethoxy)-1-[2-[[4-fluoro-3-(3-thienyloxy)benzoyl]amino]acetyl]-N-(1H-pyrrolo[3,2-c]pyridin-2-ylmethyl)pyrrolidine-2-carboxamide]"
2,< 100,"Cc1ccc(Oc2cccc(C(=O)NCC(=O)N3C[C@@](F)(CF)C[C@H]3C(=O)NCc3cc4cnccc4[nH]3)c2)c(F)c1 [Compound 319, (2S,4R)-N-((1H-pyrrolo[3,2-c]pyridin-2-yl)methyl)-4-fluoro-1-((3-(2-fluoro-4-methylphenoxy)benzoyl)glycyl)-4-(fluoromethyl) pyrrolidine-2-carboxamide]"
3,< 100,"Cc1ccc(Oc2cccc(C(=O)NCC(=O)N3[C@H]4C[C@@]4(C)C[C@H]3C(=O)N[C@H](C)c3cc4cnccc4[nH]3)c2)c(F)c1 [Compound 320, (1S,3S,5S)-N-((R)-1-(1H-pyrrolo[3,2-c]pyridin-2-yl)ethyl)-2-((3-(2-fluoro-4-methylphenoxy)benzoyl)glycyl)-5-methyl-2-azabicyclo[3.1.0]hexane-3-carboxamide]"
4,< 100,"Cc1ccc(Oc2cccc(C(=O)NCC(=O)N3CC4(C[C@H]3C(=O)N[C@H](C)c3cc5cnccc5[nH]3)OCCO4)c2)c(F)c1 [Compound 321, (S)-N-((R)-1-(1H-pyrrolo[3,2-c]pyridin-2-yl)ethyl)-7-((3-(2-fluoro-4-methylphenoxy)benzoyl)glycyl)-1,4-dioxa-7-azaspiro[4.4]nonane-8-carboxamide]"
5,< 100,"Cc1ccc(Oc2ccc(F)c(C(=O)NCC(=O)N3C[C@H](OC(F)F)C[C@H]3C(=O)NCc3cc4cnccc4[nH]3)c2)c(F)c1 [Compound 322, (2S,4R)-N-((1H-pyrrolo[3,2-c]pyridin-2-yl)methyl)-4-(difluoromethoxy)-1-((2-fluoro-5-(2-fluoro-4-methylphenoxy)benzoyl)glycyl) pyrrolidine-2-carboxamide]"
6,< 100,"Cc1ccc(Oc2ccnc(C(=O)NCC(=O)N3C[C@H](OC(F)F)C[C@H]3C(=O)NCc3cc4cnccc4[nH]3)c2)c(F)c1 [Compound 323, N-(2-((2S,4R)-2-(((1H-pyrrolo[3,2-c]pyridin-2-yl)methyl)carbamoyl)-4-(difluoromethoxy)pyrrolidin-1-yl)-2-oxoethyl)-4-(2-fluoro-4-methylphenoxy)picolinamide]"
7,< 100,"Cc1ccc(Nc2cccc(C(=O)NCC(=O)N3C[C@H](OC(F)F)C[C@H]3C(=O)NCc3cc4cnccc4[nH]3)c2)c(F)c1 [Compound 324, (2S,4R)-N-((1H-pyrrolo[3,2-c]pyridin-2-yl)methyl)-4-(difluoromethoxy)-1-((3-((2-fluoro-4-methylphenyl)amino)benzoyl)glycyl) pyrrolidine-2-carboxamide]"
8,< 100,"Cc1ccc(COc2cccc(C(=O)NCC(=O)N3C[C@H](OC(F)F)C[C@H]3C(=O)NCc3cc4cnccc4[nH]3)c2)c(F)c1 [Compound 325, (2S,4R)-N-((1H-pyrrolo[3,2-c]pyridin-2-yl)methyl)-4-(difluoromethoxy)-1-((3-((2-fluoro-4-methylbenzyl)oxy)benzoyl)glycyl)pyrrolidine-2-carboxamide]"
9,< 100,"Cc1ccc(Oc2cccc(C(=O)NCC(=O)N3C[C@H](OC(F)F)C[C@H]3C(=O)NCc3cc4cnccc4[nH]3)c2F)cc1 [Compound 327, (2S,4R)-N-((1H-pyrrolo[3,2-c]pyridin-2-yl)methyl)-4-(difluoromethoxy)-1-((2-fluoro-3-(p-tolyloxy)benzoyl)glycyl) pyrrolidine-2-carboxamide]"
10,< 100,"Cc1cc(Oc2ccc(C)cc2F)cc(C(=O)NCC(=O)N2C[C@H](OC(F)F)C[C@H]2C(=O)NCc2cc3cnccc3[nH]2)c1 [Compound 328, (2S,4R)-N-((1H-pyrrolo[3,2-c]pyridin-2-yl)methyl)-4-(difluoromethoxy)-1-((3-(2-fluoro-4-methylphenoxy)-5-methylbenzoyl)glycyl)pyrrolidine-2-carboxamide]"
11,< 100,"Cc1ccc2c(c1)oc1ccc(C(=O)NCC(=O)N3C[C@H](OC(F)F)C[C@H]3C(=O)NCc3cc4cnccc4[nH]3)cc12 [Compound 332, (2S,4R)-N-((1H-pyrrolo[3,2-c]pyridin-2-yl)methyl)-4-(difluoromethoxy)-1-((7-methyldibenzo[b,d]furan-2-carbonyl)glycyl)pyrrolidine-2-carboxamide]"
12,< 100,"Cc1ccc2oc3ccc(C(=O)NCC(=O)N4C[C@H](OC(F)F)C[C@H]4C(=O)NCc4cc5cnccc5[nH]4)cc3c2c1 [Compound 334, (2S,4R)-N-((1H-pyrrolo[3,2-c]pyridin-2-yl)methyl)-4-(difluoromethoxy)-1-((8-methyldibenzo[b,d]furan-2-carbonyl)glycyl)pyrrolidine-2-carboxamide]"
13,< 100,"Cc1cccc2c1oc1ccc(C(=O)NCC(=O)N3CCC[C@H]3C(=O)NCc3cc4cnccc4[nH]3)cc12 [Compound 336, (S)-N-((1H-pyrrolo[3,2-c]pyridin-2-yl)methyl)-1-((6-methyldibenzo[b,d]furan-2-carbonyl)glycyl)pyrrolidine-2-carboxamide]"

# From US20260062443A1 (ALEXION PHARMACEUTICALS, INC., priority 2022, published 2026)
